{"source": "patent US8217042B2", "about": "“Pyridopyrazines and their use as modulators of kinases” (Zentaris GmbH, priority 2005, dated 2012)", "key": {"Hct116": {"tested_on": "Hct116", "experiment": "XTT assay, anti-proliferative action, Hct116", "format": "cell-based", "conditions": "Homo sapiens, HCT-116, 45 h, Hct116 cells, 45 h incubation", "experimental": "The principle of this test is based on the intracellular reduction of the tetrazolium dye XTT (sodium 3′-[1-(phenylaminocarbonyl)-3,4-tetrazolium]bis(4-methoxy-6-nitro)benzenenesulphonic acid, Sigma) to a formazan dye by mitochondrial dehydrogenases.\nThe dye is formed only by metabolically active cells; its photometrically measurable intensity is a quantitative indicator for the presence of living cells. The reduction in the dye formation as a result of incubation of the cells with substances serves as a parameter for the anti-proliferative action.\nThe tumour cell lines (ATCC) were seeded in 96-well microtitre plates in a defined cell count (5000 cells/well for BxPC3 and Hct116; 10 000 cells/well for MDA MB468), and then incubated overnight in an incubator at 37° C., 5% CO2 and 95% air humidity. The test substances were made up as stock solutions (10 mM) in DMSO. […] The cell plates were then incubated for 45 h in an incubator at 37° C., 5% CO2 and 95% air humidity.\nFor the detection reaction, the XTT substrate was admixed with PMS (N-methyldibenzopyrazine methylsulphate, Sigma) and added to the cells, so as to result in a final concentration of 325 μg of XTT/ml and 2.5 μg PMS/ml. The mixture was then incubated for 3 h at 37° C., 95% air humidity. Subsequently the formazan salt formed by cellular dehydrogenases was quantified at an absorption of 490 nm.\nThe evaluation of the % inhibition values was done by means of the following formula from the values for the optical densities measured in each case at 490 nm:\nThe controls were determined 8 times each, the substance samples twice each. 0% control contained no cells; the 100% control contained no test substance. The EC50 values were determined with GraphPadPrism."}, "Erk2": {"target": "T1, Erk2", "T1 construct": "in some cases as full-length kinases, in some cases as truncated fragments; purchased Upstate 14-173", "T1 sequence (P63085 whole entry, the tested form may be a part)": "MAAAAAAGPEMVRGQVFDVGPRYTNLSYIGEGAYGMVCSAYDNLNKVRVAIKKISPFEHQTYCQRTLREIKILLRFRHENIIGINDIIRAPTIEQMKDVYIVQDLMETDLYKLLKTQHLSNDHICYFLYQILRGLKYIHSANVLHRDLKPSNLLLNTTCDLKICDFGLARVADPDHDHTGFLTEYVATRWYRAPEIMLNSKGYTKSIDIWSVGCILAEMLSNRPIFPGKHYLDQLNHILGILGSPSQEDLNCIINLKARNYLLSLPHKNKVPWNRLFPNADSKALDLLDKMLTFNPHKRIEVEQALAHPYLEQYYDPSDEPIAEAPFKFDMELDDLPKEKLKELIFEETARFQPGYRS", "experiment": "Cell-free kinase assay (ALPHA technology), Erk2-ALPHA", "format": "biochemical", "conditions": "10 μM ATP, recombinant human kinase", "experimental": "The inhibitory effect of the inventive compounds was tested on various human serine/threonine kinases, tyrosine kinases and lipid kinases in enzymatic assays. Recombinant human kinases, for example Erk2, PI3Kalpha, -beta, -gamma, -delta, p38alpha, p38gamma, Jnk1, Jnk2 and others were used, in some cases as full-length kinases, in some cases as truncated fragments—but at least consisting of the functional kinase domains. The commercial kinase proteins (Proqinase, Upstate) were used as recombinant fusion proteins with GST (glutathione S-transferase) tag or His tag. Depending on the substrate type, the different kinase reactions were quantified by means of suitable ALPHA™ beads (PerkinElmer).\nThe substrate testing on the Erk assay is described in detail below. Selected test results of the Erk2, PI3Kalpha assays are cited below. […] The kinase reaction was then stopped by adding 10 μl of the ALPHA bead mix (10 μg/ml, #6760617/PerkinElmer), pre-incubated with anti-phospho MBP antibody (320 μM, #05-429/Upstate), in 25 mM Tris, 200 mM NaCl, 100 mM EDTA and 0.3% BSA, and left to stand overnight. • b) PI3K-ALPHAs (e.g. PI3Kalpha): The test substance, 1 ng of PI3Kalpha (#14-602, Upstate), 100 μM ATP and 20 μM PIP2 substrate (#P4508, Echelon) on a 384-well Optiplate (Perkin Elmer) for 1 h in 50 mM Hepes, 50 mM NaCl, 5 mM MgCl2, 0.05% Chaps, 5 mM DTT at pH 7.4. Subsequently, the kinase reaction was stopped by adding the ALPHA bead mix (10 μg/ml, #6760603/PerkinElmer), preincubated with 1 nM GST:Grp1 fusion protein (Upstate) and 15 nM biotinylated PIP3 (#C-39B6/Echelon) in 50 mM Hepes, 50 mM NaCl, 50 mM EDTA and 0.1% BSA, and left to stand overnight.\nThe fluorescence was detected the next morning in a Fusion™ alpha instrument (Perkin Elmer).\nThe calculation of % inhibition values per substance concentration was done by means of the following formula from the raw data determined in the Fusion™ alpha:\nThe controls were each determined 8 times, the substance samples each twice. 0% control contained neither any ATP nor any substrate; the 100% control contained no test substance. The IC50 values were determined with GraphPadPrism."}}, "data": [{"smiles": "CCNC(=O)Nc1ccc2ncc(Nc3ccc(C)c(NS(C)(=O)=O)c3)nc2n1", "note": "[Compound 49, N-{5-[6-(3-Ethylurea)pyrido[2,3-b]pyrazin-3-ylamino]-2-methylphenyl}methanesulphonamide]", "values": [{"measurement": "EC50", "setting": "Hct116", "value": "~20", "unit": "µM"}, {"measurement": "IC50", "setting": "Erk2", "value": 9.6, "unit": "µM"}]}]}
